Data set [1] has as its system motor neurons co-cultured with SOD1^G93A astrocytes (Na/K ATPase). Put plainly: co-culture of SOD1^G93A or control astrocytes with primary motor neurons, pharmacological inhibition of Na/K ATPase. As to conditions: for impairment of dendrite morphology in motor neurons induced by SOD1^G93A astrocytes / motor neuron cell death induced by SOD1^G93A astrocytes: final concentration of 1 μm; for motor neuron cell death induced by SOD1^G93A astrocytes: vehicle 56%, 7 days of co-culture. The protocol:
Monolayer astrocytes culture from P2 SOD1^G93A and non-transgenic littermate mice were prepared as described in Di Giorgio et al., Nat. Neurosci. 10:608-614 (2007) and Nagai et al., Nat. Neurosci. 10:615-622 (2007), each of which is incorporated by reference. Astrocytes were plated in DMEM (GIBCO) supplemented with 10% FBS containing 100 U/ml penicillin and […] for two weeks or until confluent. Once confluent, cells were replated onto glass cover slips precoated with poly-D-lysine at a density of 40,000 cells/well in a 24-well dish. For RNAi experiment astrocyte cultures were transfected with RNAi or control U6 plasmid using Lipofectamine 2000 (Invitrogen) according to the guidelines of the manufacturer four days prior to co-culturing with motor neurons.
Spinal motor neuronal cultures from E12.5 wild-type rodents were performed as described in Gingras et al., J. Neurosci. Methods 163:11-118 (2007), which is hereby incorporated by reference. Cultures were plated astrocyte monolayers at 12,000 cells/well in Neurobasal-A medium (GIBCO) supplemented with 2% B-27 serum free supplement and 0.5 mM glutamine; DMEM/F12 (3:1, v/v ratio) with a cocktail of trophic factors composed of 0.5 ng/ml glia-derived neurotrophic factor, 1 ng/ml brain-derived neurotrophic factor and 10 ng/ml ciliary neurotrophic factor (trophic factor cocktail, R&D Systems).
Motor neurons were fixed after 7 days of co-cultures with astrocytes and immunostained with Islet1, MAP2 and Hoechst 33258 and subjected to cell survival. Approximately 150 cells were counted per cover slip. For pharmacological inhibition of Na/K ATPase in co-cultures. […] For motor neuron morphology images were taken using a NIKON eclipse TE2000 epifluorescence microscope using a digital CCD camera (DIAGNOSTIC instruments) and imported into the SPOT imaging software. Approximately 40 cells were analyzed per cover slip.

The next data set deals with SOD1^G93A mice. In kind it is in vivo. How it is done: Transgenic mice overexpressing mutant G93A human superoxide dismutase 1 (Jackson Laboratory stock#002726). α2-Na/K ATPase null heterozygous (provided by Dr. Jerry B. Lingrel) and C57BL6 (Charles River) were used. All analysis was done with littermate mice derived from SOD1^G93A heterozygous mating with non-transgenic wild type and heterozygous α2-Na/K ATPase mice. All animal experiments were conducted under the institutional guidelines and were approved by the Institutional Animal Care and Use Committee (IACUC).
All morphological studies were performed as described in Chandra et al., Cell 123:383-396 (2005), which is incorporated by reference. Briefly, mice were deeply anesthetized and perfused with 4% paraformaldehyde in phosphate buffer. Spinal cords were post-fixed in the same fixative for 4 hours and processed for cryoprotective embedding. Immunohistochemistry analyses were carried out on 30 um cryosections from spinal cords with the indicated antibodies. […] For lentiviral mediated RNAi a minimum of 20 sections were quantified for surviving motor neurons in the injected and non-injected ventral horns from Nissl stained and immunofluorescence labeled sections.

Entries after “also recorded” stand apart in the source; their conditions may differ.

digoxin: in data set [1], the “non-cell autonomous cell death and dendrite abnormalities induced by SOD1^G93A astrocytes (FIG. 5)” value is recorded as “neuroprotective”; the “survival or morphology of motor neurons co-cultured with control (non-transgenic) astrocytes” value is listed as “did not alter survival or morphology of motor neurons; also recorded: did not alter motor neuron survival or morphology”; the “impairment of dendrite morphology in motor neurons induced by SOD1^G93A astrocytes” value is given as “prevented impairment of dendrite morphology”; the “motor neuron cell death induced by SOD1^G93A astrocytes” value came to 19%. Further, the “motor neurons per ventral horn section” value with SOD1^G93A mice (1 mg/kg intraperitoneal on a 48-hour cycle from 80 days, toward end stage (130±5 days), vehicle 4.66±0.40) came out at 7.20±0.21. Besides, in the data set with SOD1^G93A mice (intraperitoneal digoxin compared to vehicle), the “motor neuron survival / degeneration in SOD1^G93A mice” value is reported as “protected motor neurons from degeneration; also recorded: significantly increases the number of motor neurons”.

With ouabain, in data set [1], the “non-cell autonomous cell death and dendrite abnormalities induced by SOD1^G93A astrocytes (FIG. 5)” value is on record as “neuroprotective”; the “survival or morphology of motor neurons co-cultured with control (non-transgenic) astrocytes” value is given as “did not alter survival or morphology of motor neurons; also recorded: did not alter motor neuron survival or morphology”; the “impairment of dendrite morphology in motor neurons induced by SOD1^G93A astrocytes” value is reported as “prevented impairment of dendrite morphology”; the “motor neuron cell death induced by SOD1^G93A astrocytes” value was determined as 22%.

(Values after patent US20170007633A1, “TREATMENT OF NEURODEGENERATIVE AND NEURODEVELOPMENTAL DISEASES BY INHIBITION OF THE a2-Na/K ATPase/a-ADDUCIN COMPLEX” (PRESIDENT AND FELLOWS OF HARVARD COLLEGE, priority 2014, published 2017).)
